Data published in US6593363B1, “Diterpene derivatives and anti-inflammatory analgesic agents comprising the same” (Sae Han Pharm. Co., Ltd., priority 1998, dated 2003).

Key:
COX-2 = biological target: T1, COX-2 (Ovis aries, UniProt P79208); experiment: Inhibition of PGE2 synthesis by inhibiting COX-2 activity (in vitro, TLC/autoradiography); assay type: biochemical, sheep; settings: for IC50: 3 Unit COX-2 from sheep placenta, [1-14C] arachidonic acid, 37° C. for 20 min
T1 construct: 3 Unit of COX-2 (Layman chemical) that is separated from sheep placenta and purified; purchased Layman chemical (sic); host or cells: sheep placenta (tissue-derived)
T1 sequence (P79208 17-603): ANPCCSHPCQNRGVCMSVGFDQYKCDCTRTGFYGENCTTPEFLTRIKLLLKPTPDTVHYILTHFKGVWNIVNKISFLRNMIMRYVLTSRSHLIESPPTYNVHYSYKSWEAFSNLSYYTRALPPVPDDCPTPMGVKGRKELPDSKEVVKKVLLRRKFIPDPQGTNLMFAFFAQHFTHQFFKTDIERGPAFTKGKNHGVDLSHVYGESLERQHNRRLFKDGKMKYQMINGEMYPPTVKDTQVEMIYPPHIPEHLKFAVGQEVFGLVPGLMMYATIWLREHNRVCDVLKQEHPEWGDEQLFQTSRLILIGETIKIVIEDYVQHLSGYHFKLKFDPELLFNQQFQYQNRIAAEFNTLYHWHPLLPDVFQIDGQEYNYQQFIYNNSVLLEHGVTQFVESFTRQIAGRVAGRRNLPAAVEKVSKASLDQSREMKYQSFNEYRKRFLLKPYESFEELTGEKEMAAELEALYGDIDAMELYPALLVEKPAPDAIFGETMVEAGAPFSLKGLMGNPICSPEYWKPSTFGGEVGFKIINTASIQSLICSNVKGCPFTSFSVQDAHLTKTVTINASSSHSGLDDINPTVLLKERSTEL
Experimental: The inhibition effect of the novel derivatives against PGE2 synthesis was tested in vitro. […] The novel derivatives were synthesized from (−)-pimara-9(11), 15-diene-4-carboxylic acid, which is a diterpene compound isolated from root-bark of Acanthopanax Koreanum.
The mixture was stranded on ice for 5 min. To the mixture, the sample for assay of COX-2 activity was added, and then incubated on ice for 10 min. After preincubation, 0.02 μCi of [1-^14C] arachidonic acid, as an substrate, was added, and reacted at 37° C. for 20 min. For the termination of the reaction, 10 μl of 2 M HCl was added. Prostaglandin produced was extracted with ethylether twice. Two ethylether layers were integrated, and the solvent was evaporated at a 37° C. water-bath. […] PGE2 part of TLC plate developed was observed using autoradiography (PACKARD). The amount of PGE2 decreased by the sample was compared with reference, and then COX-2 inhibition activity of the sample was determined.

Raw 264.7 = experiment: Cytotoxicity, MTT assay; assay type: cell-based; settings: Raw 264.7, MTT assay at 48 hours after sample treatment
Experimental: (§1) To investigate the utility of diterpene derivatives synthesized, cytotoxicities of some derivatives were tested.
(§2) The cytotoxicity was tested using Raw 264.7. The cytotoxicity and non-cytotoxicity were judged by performing MTT assay at 48 hours after sample treatment.

[1] = system: mono-arthritis model, tibeo-calcanean joint; experiment: Anti-inflammatory activity against acute inflammation, adjuvant mono-arthritis model (edema index); assay type: in vivo; settings: rat, 5 mg/kg intraperitoneal; for edema index size: 1 hour after inducing inflammation; for effect on edema index compared with koprofen or indometacin: after 4 hours
Experimental: For some of the natural single material and synthetic derivatives thereof, of which the inhibition effect against PGE2 synthesis was tested in Experimental example 1, the anti-inflammatory activity against arthritis was tested using a mono-arthritis model as follows:
Derivatives synthesized were dissolved in the mixed solvent of ethanol: Tween 80: saline (1:1:8), and then administered by intrapertioneal injection. Referring to the result of the in vitro test, 5 mg/kg was used as a dose for primary screening test. Adjuvant that was dissolved in mineral oil and then sterilized, was administered into tibeo-calcanean joint of right crus posterius of rat to induce arthritis. The injection volume is controlled to be contained M. butyricum 100 μg/50 μl.
Edema degree was determined primarily, and the degree was used as an index of inflammation. The degree was determined by the estimation method for section area of tibeo-calcanean joint part. Width and length measurements of the joint part were taken according to time schedule upon inducing inflammation, and the width multiplied by the length. The multiplied value was then used as a section area index (SAI). On the basis of the section area index, edema index was calculated as follows: […]
(SAI of inflammatory joint−SAI of normal joint)
Each index was determined at 1, 4 and 24 hours after adjuvant injection. The index value determined at the same part before adjuvant injection was used as one of normal joint.
Unpaired t-test or ANOVA using Fisher PLSD verified the statistical significance.

Cytotoxicity, MTT assay = assay type: cell-based; settings: mouse, Raw 264.7 cells; Raw 264.7, MTT assay at 48 hours after sample treatment
Experimental: as §1, §2

13-Isoxazolinyl-(−)-pimara-9(11)-en-4-carboxylic acid [Example 21]
IC50 (COX-2): > 2000 µM
IC50 (Raw 264.7): 250 µM

16-Hydroxy-(−)-pimara-4-carboxylic acid [Example 16]
inhibition effect against PGE2 synthesis (in words) (COX-2): excellent inhibition effect
IC50 (Raw 264.7): 137 µM

16-Methoxyethoxymethoxy-(−)-Pimara-9(11)-En-4-Carboxylic Acid [Example 52]
IC50 (COX-2): > 2000 µM

C=C[C@@]1(C)CC=C2C(CCC3[C@](C)(C(=O)O)CCC[C@@]23C)C1 (single isomer, unassigned; (-)) [Natural Component, (−)-pimara-9(11),15-diene-4-carboxylic acid, reference compound]
IC50 (COX-2): 790 µM

C=CC1(C)CC=C2C(CCC3C(C)(CO)CCCC23C)C1 (stereo not drawn) [Example 1, 4-Hydroxymethyl-(−)-pimara-9(11),15-diene]
IC50 (COX-2): > 2000 µM

C=CC1(C)CC=C2C(CCC3C(C)(CC(=O)O)CCCC23C)C1 (stereo not drawn) [Example 5, 4-Carboxymethyl-(−)-pimara-9(11),15-diene]
inhibition effect against PGE2 synthesis (in words) (COX-2): excellent inhibition effect
IC50 (COX-2): 82.3 µM
edema index size [1]: not more then half
effect on edema index compared with koprofen or indometacin [1]: even superior effect
IC50 (Raw 264.7): 140 µM

C=CC1(C)CC=C2C(CCC3C(C)(C=CC(=O)O)CCCC23C)C1 (stereo not drawn) [Example 7, 4-Carboxyvinyl-(−)-pimara-9(11),15-diene]
inhibition effect against PGE2 synthesis (in words) (COX-2): excellent inhibition effect

C=C[C@@]1(C)CC=C2C(CCC3[C@@]2(C)CCC[C@@]3(C)/C=C/C(=O)O)C1 (stereo partly drawn) [Example 7, 4-Carboxyvinyl-(−)-pimara-9(11),15-diene]
IC50 (COX-2): 69.7 µM
IC50 at 48 h (Cytotoxicity, MTT assay): 139 µM

C=C[C@@]1(C)CC=C2[C@@H](CC[C@@H]3[C@](C)(CCC(=O)O)CCC[C@@]23C)C1 [Example 9, 4-Carboxyethyl-(−)-pimara-9(11),15-diene]
inhibition effect against PGE2 synthesis (in words) (COX-2): excellent inhibition effect
IC50 (COX-2): 105 µM
edema index size [1]: not more then half
effect on edema index compared with koprofen or indometacin [1]: even superior effect
IC50 at 48 h (Cytotoxicity, MTT assay): 114 µM

C=C[C@@]1(C)CC=C2C(CCC3[C@](C)(C(N)=O)CCC[C@@]23C)C1 (stereo partly drawn) [Example 11, 4-Carbamoyl-(−)-pimara-9(11), 15-diene]
IC50 (COX-2): > 2000 µM

C=CC1(C)CC=C2C(CCC3C(C)(C(=O)NC)CCCC23C)C1 (stereo not drawn) [Example 12, 4-(N-methyl)carbamoyl-(−)-pimara-9(11), 15-diene]
IC50 (COX-2): > 2000 µM

C=C[C@@]1(C)CC=C2C(CCC3[C@](C)(C(=O)NN)CCC[C@@]23C)C1 (stereo partly drawn) [Example 13, 4-Carbazoyl-(−)-pimara-9(11), 15-diene]
IC50 (COX-2): 41.9 µM

C=CC1(C)CC=C2C(CCC3C(C)(C(=O)NO)CCCC23C)C1 (stereo not drawn) [Example 14, 4-(N-hydroxy)carbaomyl-(−)-pimara-9(11), 15-diene]
IC50 (COX-2): 819 µM

C[C@]1(CCO)CC=C2C(CCC3[C@](C)(C(=O)O)CCC[C@@]23C)C1 (stereo partly drawn) [Example 15, 16-Hydroxy-(−)-pimara-9(11)-en-4-carboxylic acid]
IC50 (COX-2): > 2000 µM
IC50 at 48 h (Cytotoxicity, MTT assay): 139 µM

CC1(CCO)CC(O)C2C(CCC3C(C)(C(=O)O)CCCC23C)C1 (stereo not drawn) [Example 19, 11,16-Dihydroxy-(−)-pimara-4-carboxylic acid]
IC50 (COX-2): > 2000 µM
IC50 (Raw 264.7): 152 µM

C=C[C@@]1(C)CC=C2C(CCC3[C@@]2(C)CCC[C@@]3(C)/C=C/C=C/C(=O)O)C1 (stereo partly drawn) [Example 29, 4-Carboxybutadienyl-(−)-pimara-9(11),15-diene]
IC50 (COX-2): 26.8 µM

C=CC1(C)CC=C2C(CCC3C(C)(CCC=CC(=O)O)CCCC23C)C1 (stereo not drawn) [Example 33, 4-Carboxyhomoallyl-(−)-pimara-9(11),15-diene]
IC50 (COX-2): 63.8 µM

C=CC1(C)CC=C2C(CCC3C(C)(CC(=O)NS(=O)(=O)c4ccc(I)cc4)CCCC23C)C1 (stereo not drawn) [Example 38, 4-(N-pipsyl)carbamoylmethyl-(−)-pimara-9(11),15-diene]
IC50 (COX-2): 72.2 µM

C=CC1(C)CC=C2C(CCC3C(C)(CCC(=O)NS(=O)(=O)c4ccc(I)cc4)CCCC23C)C1 (stereo not drawn) [Example 40, 4-(N-pipsyl)carbamoylethyl-(−)-pimara-9(11),15-diene]
IC50 (COX-2): 60.7 µM

C=CC1(C)CC=C2C(CCC3C(C)(CCC(=O)NS(C)(=O)=O)CCCC23C)C1 (stereo not drawn) [Example 41, 4-(N-methanesulfonyl)carbamoylethyl-(−)-pimara-9(11),15-diene]
IC50 (COX-2): 180 µM

C=CC1(C)CC=C2C(CCC3C(C)(C=CC=CC(=O)NS(=O)(=O)c4ccc(I)cc4)CCCC23C)C1 (stereo not drawn) [Example 43, 4-(N-Pipsyl)Carbamoylbutadienyl-(−)-Pimara-9(11),15-Diene]
IC50 (COX-2): 25.6 µM

COCC[C@@]1(C)CC=C2[C@@H](CC[C@@H]3[C@](C)(C(=O)O)CCC[C@@]23C)C1 [Example 46, 16-Methoxy-(−)-Pimara-9(11)-En-4-Carboxylic Acid]
IC50 (COX-2): > 2000 µM

CC(=O)OCCC1(C)CC=C2C(CCC3C(C)(C(=O)O)CCCC23C)C1 (stereo not drawn) [Example 48, 16-Acetyloxy-(−)-Pimara-9(11)-En-4-Carboxylic Acid]
IC50 (COX-2): 1420 µM

COCOCC[C@@]1(C)CC=C2[C@@H](CC[C@@H]3[C@](C)(C(=O)O)CCC[C@@]23C)C1 [Example 50, 16-Methoxymethoxy-(−)-Pimara-9(11)-En-4-Carboxylic Acid]
IC50 (COX-2): > 2000 µM

CON=CCC1(C)CC=C2C(CCC3C(C)(C(=O)O)CCCC23C)C1 (stereo not drawn) [Example 55, 16-Methoxyimino-(−)-Pimara-9(11)-En-4-Carboxylic Acid]
IC50 (COX-2): > 2000 µM
